Measurements: publication PMC2820545, “Mechanistic Characterization and Molecular Modeling of Hepatitis B Virus Polymerase Resistance to Entecavir” (PLoS ONE, 2010)
“And” between values parts separate entries of the source, which are not always exact repeats. Identical values can stand only once. Like-named read-outs stand apart in the source and are kept apart here.

Experiments:
[1] = test system: ETVr HBV polymerases (ETVr signature substitutions in a LVDr background); assay: In vitro HBV polymerase assay, ETVr enzymes as a group; type: biochemical, hepatitis B virus
From the text: (§1) To provide the data in Tables 1 & 2, intracellular HBV nucleocapsids were isolated from HBV transfected HepG2 cells and used in endogenous polymerase assays (EPA), exactly as previously described in detail. Essentially, clarified, detergent and nuclease-treated HBV-transfected cell lysates were centrifugally sedimented through a 25% wt/vol sucrose cushion. Sedimented nucleocapsids were used in polymerase reactions with [33P]-labeled dNTPs and TCA-precipitable radioactivity was used as an indication of the HBV polymerase activity, as described.
(§2) In order to increase the activity of the EPA reactions, we used nucleocapsids from cells treated with phosphonoformic acid (foscarnet, PFA; Sigma) during culture. […] PFA inhibits synthesis of all HBV DNA forms and both strands of HBV DNA, but not priming, and has a cell culture EC50 of approximately 5 mM for HBV [48].
(§3) The HBV polymerase dNTP Km values were determined from similar assays where the concentration of dNTP was serially diluted from 1000 nM to 0.3 nM. All other dNTPs were used at a fixed concentration equal to the highest test dNTP concentration with one-tenth of the TTP in the form of [α^33P] TTP (3000 Ci/mmol; PerkinElmer, Boston, MA). The apparent Km values were obtained from Lineweaver-Burke plots of the data generated by GraphPad PRISM™ software version 3.0 (San Diego, CA). The Ki values were calculated using the Cheng-Prusoff equation: Ki = IC50/(1+[S]/Km). The enzyme concentration within HBV nucleocapsid preparations was found by determining the level of covalently-linked HBV DNA using quantitative real-time PCR [9] and converting to genome equivalents [1 pg double stranded HBV DNA = 3×10^5 genome equivalents [34]]. The primers were positioned near the 5′ end of minus strand DNA in an attempt to measure all enzymatically active molecules.

[2] = target: T1, LVDr + T184G + S202I HBV polymerase (Hepatitis B virus genotype D subtype ayw, UniProt P03156, L515M/M539V/S537I/T519G); assay: In vitro HBV polymerase assay (endogenous polymerase assay with nucleocapsids); type: biochemical; details: for IC50: In vitro polymerase
T1 construct: intracellular HBV nucleocapsids were isolated from HBV transfected HepG2 cells and used in endogenous polymerase assays; expressed in transfected cells; host or cells: HepG2 cells transfected with an HBV expression plasmid
T1 sequence (P03156 whole entry L515M/T519G/S537I/M539V): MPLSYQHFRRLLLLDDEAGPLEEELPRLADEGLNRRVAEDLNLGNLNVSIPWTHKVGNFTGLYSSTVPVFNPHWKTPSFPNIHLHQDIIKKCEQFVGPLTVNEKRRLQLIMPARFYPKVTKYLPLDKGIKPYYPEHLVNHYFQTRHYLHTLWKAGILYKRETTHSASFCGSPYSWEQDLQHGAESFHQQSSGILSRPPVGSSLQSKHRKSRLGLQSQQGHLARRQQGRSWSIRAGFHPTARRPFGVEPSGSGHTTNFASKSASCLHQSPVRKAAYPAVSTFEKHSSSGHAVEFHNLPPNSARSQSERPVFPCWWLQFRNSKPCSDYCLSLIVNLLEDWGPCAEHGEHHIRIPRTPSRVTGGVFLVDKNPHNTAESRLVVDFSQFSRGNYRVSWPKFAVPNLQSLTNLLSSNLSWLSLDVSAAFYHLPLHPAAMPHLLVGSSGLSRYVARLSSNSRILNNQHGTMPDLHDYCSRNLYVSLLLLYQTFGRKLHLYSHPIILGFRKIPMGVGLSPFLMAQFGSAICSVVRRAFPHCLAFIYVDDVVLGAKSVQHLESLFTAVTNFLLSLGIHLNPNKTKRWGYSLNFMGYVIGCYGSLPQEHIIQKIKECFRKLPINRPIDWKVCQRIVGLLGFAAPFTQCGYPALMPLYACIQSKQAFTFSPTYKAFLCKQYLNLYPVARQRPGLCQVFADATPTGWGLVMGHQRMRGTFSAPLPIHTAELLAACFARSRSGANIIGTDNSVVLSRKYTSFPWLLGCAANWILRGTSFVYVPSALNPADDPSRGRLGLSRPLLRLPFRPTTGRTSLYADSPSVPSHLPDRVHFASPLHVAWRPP
From the text: as §1, §2, §3

[3] = target: T2, LVDr + T184L HBV polymerase (Hepatitis B virus genotype D subtype ayw, UniProt P03156, L515M/M539V/T519L); assay: as above; type: biochemical
T2 construct: intracellular HBV nucleocapsids were isolated from HBV transfected HepG2 cells and used in endogenous polymerase assays; expressed in transfected cells; host or cells: HepG2 cells transfected with a mutated HBV expression plasmid
T2 sequence (P03156 whole entry L515M/T519L/M539V): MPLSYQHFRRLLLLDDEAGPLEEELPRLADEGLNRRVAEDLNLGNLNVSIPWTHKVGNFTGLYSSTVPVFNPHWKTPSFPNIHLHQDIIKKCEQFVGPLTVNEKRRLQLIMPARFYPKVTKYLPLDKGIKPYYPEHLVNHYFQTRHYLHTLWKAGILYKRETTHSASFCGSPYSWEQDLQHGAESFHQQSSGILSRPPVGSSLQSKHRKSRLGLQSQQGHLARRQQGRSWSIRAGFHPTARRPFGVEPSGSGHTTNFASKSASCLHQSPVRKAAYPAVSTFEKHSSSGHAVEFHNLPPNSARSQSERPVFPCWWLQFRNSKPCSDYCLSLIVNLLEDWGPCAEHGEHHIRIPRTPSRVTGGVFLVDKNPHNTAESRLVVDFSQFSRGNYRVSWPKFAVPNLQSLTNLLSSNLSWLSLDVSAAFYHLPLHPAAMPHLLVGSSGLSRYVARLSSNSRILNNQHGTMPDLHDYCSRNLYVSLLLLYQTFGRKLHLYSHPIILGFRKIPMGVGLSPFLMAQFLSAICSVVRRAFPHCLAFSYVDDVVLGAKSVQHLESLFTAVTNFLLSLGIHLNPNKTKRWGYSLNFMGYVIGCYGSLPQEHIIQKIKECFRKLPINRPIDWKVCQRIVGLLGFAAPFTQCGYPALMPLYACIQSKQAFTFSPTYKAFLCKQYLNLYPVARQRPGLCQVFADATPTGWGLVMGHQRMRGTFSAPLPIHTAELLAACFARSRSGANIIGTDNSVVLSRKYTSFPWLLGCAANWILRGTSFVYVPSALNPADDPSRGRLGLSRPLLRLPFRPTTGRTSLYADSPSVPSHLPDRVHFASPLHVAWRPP
From the text: as §1, §2, §3

[4] = target: T3, LVDr L180M + M204V HBV polymerase (Hepatitis B virus genotype D subtype ayw, UniProt P03156, L515M/M539V); assay: as above; type: biochemical; details: for IC50: In vitro polymerase, LVDr L180M + M204V
T3 construct: intracellular HBV nucleocapsids were isolated from HBV transfected HepG2 cells and used in endogenous polymerase assays; expressed in transfected cells; host or cells: HepG2 cells transfected with a mutated HBV expression plasmid
T3 sequence (P03156 whole entry L515M/M539V): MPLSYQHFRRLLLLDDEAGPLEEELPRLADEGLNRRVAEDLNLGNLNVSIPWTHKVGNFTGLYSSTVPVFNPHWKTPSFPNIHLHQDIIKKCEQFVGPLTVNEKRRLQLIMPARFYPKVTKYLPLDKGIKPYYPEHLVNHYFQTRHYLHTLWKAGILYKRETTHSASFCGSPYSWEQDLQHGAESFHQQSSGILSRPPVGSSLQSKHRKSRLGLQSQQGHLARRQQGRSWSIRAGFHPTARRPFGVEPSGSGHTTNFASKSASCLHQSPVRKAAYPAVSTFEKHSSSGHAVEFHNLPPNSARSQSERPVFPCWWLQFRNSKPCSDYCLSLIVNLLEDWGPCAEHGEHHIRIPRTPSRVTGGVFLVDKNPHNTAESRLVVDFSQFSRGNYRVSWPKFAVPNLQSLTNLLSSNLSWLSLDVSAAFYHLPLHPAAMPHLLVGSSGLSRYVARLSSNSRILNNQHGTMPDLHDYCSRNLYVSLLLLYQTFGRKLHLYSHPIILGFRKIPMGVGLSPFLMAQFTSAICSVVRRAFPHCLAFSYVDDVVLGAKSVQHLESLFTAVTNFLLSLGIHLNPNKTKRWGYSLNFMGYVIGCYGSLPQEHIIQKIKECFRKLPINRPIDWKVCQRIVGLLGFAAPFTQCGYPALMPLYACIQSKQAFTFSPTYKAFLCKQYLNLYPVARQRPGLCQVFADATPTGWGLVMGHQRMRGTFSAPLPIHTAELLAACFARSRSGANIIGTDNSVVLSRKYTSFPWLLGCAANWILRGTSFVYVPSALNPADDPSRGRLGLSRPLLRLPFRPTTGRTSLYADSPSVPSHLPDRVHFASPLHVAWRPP
From the text: as §1, §2, §3

[5] = target: T4, LVDr + S202G HBV polymerase (Hepatitis B virus genotype D subtype ayw, UniProt P03156, L515M/M539V/S537G); assay: as above; type: biochemical; details: for IC50: In vitro polymerase
T4 construct: intracellular HBV nucleocapsids were isolated from HBV transfected HepG2 cells and used in endogenous polymerase assays; expressed in transfected cells; host or cells: HepG2 cells transfected with a mutated HBV expression plasmid
T4 sequence (P03156 whole entry L515M/S537G/M539V): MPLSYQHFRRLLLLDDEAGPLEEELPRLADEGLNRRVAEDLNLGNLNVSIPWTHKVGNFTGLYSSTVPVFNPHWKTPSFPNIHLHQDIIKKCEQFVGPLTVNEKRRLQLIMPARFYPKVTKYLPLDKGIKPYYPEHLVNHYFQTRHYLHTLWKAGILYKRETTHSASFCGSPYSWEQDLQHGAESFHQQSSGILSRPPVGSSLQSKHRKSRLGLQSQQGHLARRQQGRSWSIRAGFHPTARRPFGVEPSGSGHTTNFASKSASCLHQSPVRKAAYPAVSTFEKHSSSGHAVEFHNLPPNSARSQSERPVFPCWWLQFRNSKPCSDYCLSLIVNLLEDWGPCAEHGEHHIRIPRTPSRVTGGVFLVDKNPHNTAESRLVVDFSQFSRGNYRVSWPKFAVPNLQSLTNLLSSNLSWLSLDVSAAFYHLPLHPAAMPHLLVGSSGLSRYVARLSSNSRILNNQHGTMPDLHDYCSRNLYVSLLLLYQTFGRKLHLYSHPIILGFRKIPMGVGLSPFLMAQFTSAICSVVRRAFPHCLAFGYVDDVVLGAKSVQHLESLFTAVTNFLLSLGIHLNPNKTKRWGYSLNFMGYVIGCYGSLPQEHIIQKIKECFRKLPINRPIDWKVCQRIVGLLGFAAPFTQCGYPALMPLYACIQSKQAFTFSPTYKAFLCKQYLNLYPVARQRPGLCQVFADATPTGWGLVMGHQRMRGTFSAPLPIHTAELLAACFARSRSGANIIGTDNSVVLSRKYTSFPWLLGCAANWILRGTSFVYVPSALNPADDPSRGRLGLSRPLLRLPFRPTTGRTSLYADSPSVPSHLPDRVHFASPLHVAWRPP
From the text: as §1, §2, §3

[6] = target: T5, LVDr + M250V HBV polymerase (Hepatitis B virus genotype D subtype ayw, UniProt P03156, L515M/M539V/M585V); assay: as above; type: biochemical; details: for IC50: In vitro polymerase
T5 construct: intracellular HBV nucleocapsids were isolated from HBV transfected HepG2 cells and used in endogenous polymerase assays; expressed in transfected cells; host or cells: HepG2 cells transfected with a mutated HBV expression plasmid
T5 sequence (P03156 whole entry L515M/M539V/M585V): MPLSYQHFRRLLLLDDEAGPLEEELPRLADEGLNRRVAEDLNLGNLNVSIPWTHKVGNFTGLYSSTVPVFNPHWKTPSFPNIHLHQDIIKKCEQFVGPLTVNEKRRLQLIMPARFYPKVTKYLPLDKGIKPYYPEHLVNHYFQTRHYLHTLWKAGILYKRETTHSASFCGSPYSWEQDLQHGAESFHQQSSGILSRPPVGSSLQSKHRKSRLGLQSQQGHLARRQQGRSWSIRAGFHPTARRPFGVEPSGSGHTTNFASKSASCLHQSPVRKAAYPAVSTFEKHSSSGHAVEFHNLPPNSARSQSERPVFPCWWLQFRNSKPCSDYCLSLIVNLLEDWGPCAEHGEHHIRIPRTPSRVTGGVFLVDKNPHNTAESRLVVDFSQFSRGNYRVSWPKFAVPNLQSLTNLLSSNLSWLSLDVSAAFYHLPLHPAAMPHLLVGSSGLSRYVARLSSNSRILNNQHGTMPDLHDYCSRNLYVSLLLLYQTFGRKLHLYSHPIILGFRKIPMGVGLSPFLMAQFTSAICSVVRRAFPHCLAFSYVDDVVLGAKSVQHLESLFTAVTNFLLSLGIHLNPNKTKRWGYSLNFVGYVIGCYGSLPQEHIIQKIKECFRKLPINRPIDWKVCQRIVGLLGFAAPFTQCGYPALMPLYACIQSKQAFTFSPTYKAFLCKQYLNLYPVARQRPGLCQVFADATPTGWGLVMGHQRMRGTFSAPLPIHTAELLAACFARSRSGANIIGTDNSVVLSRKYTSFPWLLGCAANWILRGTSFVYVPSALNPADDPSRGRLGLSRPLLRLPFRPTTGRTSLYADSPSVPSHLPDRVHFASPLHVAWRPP
From the text: as §1, §2, §3

[7] = target: T6, Wildtype HBV polymerase (Hepatitis B virus genotype D subtype ayw, UniProt P03156); assay: as above; type: biochemical
T6 construct: intracellular HBV nucleocapsids were isolated from HBV transfected HepG2 cells and used in endogenous polymerase assays; expressed in transfected cells; host or cells: HepG2 cells transfected with pCMV-HBV
T6 sequence (P03156 whole entry): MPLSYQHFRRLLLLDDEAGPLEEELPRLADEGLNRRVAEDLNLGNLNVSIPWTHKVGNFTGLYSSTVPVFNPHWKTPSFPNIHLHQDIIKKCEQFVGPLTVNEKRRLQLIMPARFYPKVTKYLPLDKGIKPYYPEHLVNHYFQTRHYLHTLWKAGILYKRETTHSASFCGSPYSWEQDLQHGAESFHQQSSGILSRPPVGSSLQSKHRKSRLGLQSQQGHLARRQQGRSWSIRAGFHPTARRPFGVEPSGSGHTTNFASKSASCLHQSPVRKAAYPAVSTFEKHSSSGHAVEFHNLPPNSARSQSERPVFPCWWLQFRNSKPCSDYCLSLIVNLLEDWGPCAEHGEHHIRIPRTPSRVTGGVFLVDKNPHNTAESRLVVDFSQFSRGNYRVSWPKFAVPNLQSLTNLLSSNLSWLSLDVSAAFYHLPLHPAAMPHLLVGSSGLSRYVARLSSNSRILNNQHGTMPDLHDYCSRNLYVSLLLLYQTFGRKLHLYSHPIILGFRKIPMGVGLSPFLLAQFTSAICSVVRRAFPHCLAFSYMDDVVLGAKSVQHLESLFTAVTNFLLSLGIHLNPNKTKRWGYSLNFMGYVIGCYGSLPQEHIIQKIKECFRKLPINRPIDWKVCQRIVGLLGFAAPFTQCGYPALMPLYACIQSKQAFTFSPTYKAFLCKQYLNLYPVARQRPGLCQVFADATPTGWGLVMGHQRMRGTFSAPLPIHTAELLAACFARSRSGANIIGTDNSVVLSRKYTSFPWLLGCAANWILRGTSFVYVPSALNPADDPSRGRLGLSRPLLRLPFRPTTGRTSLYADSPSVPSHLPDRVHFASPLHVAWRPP
From the text: as §1, §2, §3

[8] = test system: HBV; parameters: method as in PMID 7601429; details: read-out: cell culture EC50; cited from earlier work
[9] = test system: HBV clones with ETVr signature substitutions in a LVDr background; details: cited from earlier work
[10] = test system: singly M250V substituted HBV; assay: HBV cell culture susceptibility (HBV-transfected HepG2 cells); type: cell-based, hepatitis B virus
From the text: The M250V substituted HBV RT in the absence of LVDr changes was constructed and tested for susceptibility to LVD, an obligate chain terminator which should not be impacted by the mechanism that could potentially affect ETV chain termination.
(§4) HepG2 human hepatoma cells (American Type Culture Collection) were maintained as described. The laboratory clone of HBV was the genotype D ayw serotype clone kindly provided by Dr. Steven Goff in the plasmid pCMV-HBV [41]. Plasmids expressing HBV RT with resistance substitutions were prepared using QuikChange® site-directed mutagenesis (Stratagene, LaJolla, CA).
(§5) HepG2 cell culture susceptibility assays were performed in cells transfected with HBV expression plasmids and cultured in the presence of a titration of antiviral compounds, as described in detail elsewhere. The levels of replicated, released HBV virions was measured at day five through immunocapture of detergent released nucleocapsids with anti-HBV core Ab and quantification of encapsidated HBV DNA [5]. Data were plotted as percent inhibition and EC50 values calculated as the drug concentration where 50% inhibition of extracellular HBV occurred.

[11] = test system: Wildtype HBV; assay: as above; type: cell-based; details: Hepatitis B virus, wildtype HBV in culture, read-out: LVD EC50
Description: as §4, §5

[12] = fold change from wildtype value, LVDr + T184L
[13] = fold change from wildtype value, LVDr + S202G
[14] = fold change from wildtype value, LVDr + M250V
[15] = fold change from wildtype value, Wildtype (WT)
[16] = fold change from wildtype value, LVDr + T184G + S202I
[17] = fold change from wildtype value, LVDr M204V+L180M

## Nc1nc2c(ncn2[C@H]2C[C@H](O)[C@@H](COP(=O)(O)OP(=O)(O)OP(=O)(O)O)O2)c(=O)[nH]1 [dGTP]
[1]; ETVr enzymes except the quadruple-substituted RT
  change of dGTP Km by ETVr changes: 2.2- to 2.6 fold
[2]; apparent Km, LVDr + T184G + S202I polymerase, read-out: dGTP Km
  Km: 0.7 ± 0.1 nM
[3]; apparent Km, LVDr + T184L polymerase, read-out: dGTP Km
  Km: 1.9 ± 0.6 nM
[3]; [12]
  dGTP Km (Fold WT): 2.6 fold
[4]; apparent Km, LVDr M204V+L180M polymerase, read-out: dGTP Km
  Km: 3.5 ± 0.4 nM
[5]; apparent Km, LVDr + S202G polymerase, read-out: dGTP Km
  Km: 2.1 ± 0.1 nM
[5]; [13]
  dGTP Km (Fold WT): 2.4 fold
[6]; apparent Km, LVDr + M250V polymerase, read-out: dGTP Km
  Km: 2.3 ± 0.5 nM
[6]; [14]
  dGTP Km (Fold WT): 2.2 fold
[7]; apparent Km, Wildtype (WT) polymerase, read-out: dGTP Km
  Km: 5 ± 0.5 nM
[7]; [15]
  dGTP Km (Fold WT): 1 fold

## O=C(O)P(=O)(O)O [PFA, phosphonoformic acid]
[8]
  EC50: ~5000 µM

## C[C@H](Cn1cnc2c(N)ncnc21)OCP(=O)(O)O [tenofovir]
[9]
  susceptibility of ETVr HBV in cell culture: does not show reduced susceptibility

## Nc1ccn([C@@H]2CS[C@H](CO)O2)c(=O)n1 [LVD, lamivudine]
[10]; Hepatitis B virus, HepG2, M250V HBV (no LVDr changes) in culture, read-out: LVD EC50
  EC50: 0.116 µM
[10]; {}
  hypersensitivity to LVD in culture: 7 fold
[11]
  EC50: 0.794 µM

## Nc1ncnc2c1ncn2CCOCP(=O)(O)O [adefovir]
[9]
  susceptibility of ETVr HBV in cell culture: does not show reduced susceptibility

## C=C1[C@H](COP(=O)(O)OP(=O)(O)OP(=O)(O)O)[C@@H](O)C[C@@H]1n1cnc2c(=O)[nH]c(N)nc21 [ETV-TP, ETV-triphosphate]
[1]; ETVr enzymes
  Ki/dGTP Km ratio, change from the wildtype: more than 600 fold
[1]; ETVr signature substitutions in a LVDr background, in vitro polymerase
  level of ETVr in vitro: > 400 fold
[2]; ETV-TP Ki / dGTP Km ratio, LVDr + T184G + S202I
  Ki/Km: 221.6
[2]; LVDr + T184G + S202I, read-out: ETV-TP IC50, Average ± SD (Range)
  IC50: 0.636 ± 0.019 µM
[2]; calculated with Cheng-Prusoff equation, LVDr + T184G + S202I polymerase, read-out: Ki (ETV-TP)
  Ki: 0.155 µM
[2]; [16]
  Ki (Fold WT): 387.8 fold
  Ki/Km (Fold WT): 2770.0 fold
[3]; ETV-TP Ki / dGTP Km ratio, LVDr + T184L
  Ki/Km: 118.2
[3]; In vitro polymerase, LVDr + T184L, read-out: ETV-TP IC50, Average ± SD (Range)
  IC50: 0.373 ± 0.143 µM
[3]; calculated with Cheng-Prusoff equation, LVDr + T184L polymerase, read-out: Ki (ETV-TP)
  Ki: 0.225 µM
[3]; [12]
  Ki (Fold WT): 561.3 fold
  Ki/Km (Fold WT): 1477.5 fold
[4]; ETV-TP Ki / dGTP Km ratio, LVDr M204V+L180M
  Ki/Km: 3.5
[4]; read-out: ETV-TP IC50, Average ± SD (Range)
  IC50: 0.0271 ± 0.0056 µM
[4]; calculated with Cheng-Prusoff equation, LVDr M204V+L180M polymerase, read-out: Ki (ETV-TP)
  Ki: 0.0123 µM
[4]; [17]
  Ki (Fold WT): 30 fold and 30.8 fold
  Ki/Km (Fold WT): 43.8 fold
[5]; ETV-TP Ki / dGTP Km ratio, LVDr + S202G
  Ki/Km: 69.9
[5]; LVDr + S202G, read-out: ETV-TP IC50, Average ± SD (Range)
  IC50: 0.258 ± 0.0255 µM
[5]; calculated with Cheng-Prusoff equation, LVDr + S202G polymerase, read-out: Ki (ETV-TP)
  Ki: 0.147 µM
[5]; [13]
  Ki (Fold WT): 366.8 fold
  Ki/Km (Fold WT): 873.8 fold
[6]; ETV-TP Ki / dGTP Km ratio, LVDr + M250V
  Ki/Km: 52.7
[6]; LVDr + M250V, read-out: ETV-TP IC50, Average ± SD (Range)
  IC50: 0.229 ± 0.0495 µM
[6]; calculated with Cheng-Prusoff equation, LVDr + M250V polymerase, read-out: Ki (ETV-TP)
  Ki: 0.121 µM
[6]; [14]
  Ki (Fold WT): 303.0 fold
  Ki/Km (Fold WT): 658.8 fold
[7]; In vitro polymerase, Wildtype, read-out: ETV-TP IC50, Average ± SD (Range)
  IC50: 0.0005 ± 0.0001 µM
[7]; calculated with Cheng-Prusoff equation, Wildtype (WT) polymerase, read-out: Ki (ETV-TP)
  Ki: 0.0004 µM
[7]; [15]
  Ki (Fold WT): 1 fold
  Ki/Km (Fold WT): 1 fold

## Nc1nc2c(ncn2[C@H]2CC[C@@H](COP(=O)(O)OP(=O)(O)OP(=O)(O)O)O2)c(=O)[nH]1 [ddGTP, 2′,3′-dideoxyguanosine-5′-triphosphate]
[1]; ETVr isolates, in vitro polymerase
  ddGTP IC50 of ETVr isolates relative to background: approximately two-fold above background
[2]; LVDr + T184G + S202I, read-out: ddGTP IC50, Average ± SD (Range)
  IC50: 0.188 ± 0.0067 µM
[4]; read-out: ddGTP IC50, Average ± SD (Range)
  IC50: 0.138 ± 0.01 µM
[5]; LVDr + S202G, read-out: ddGTP IC50, Average ± SD (Range)
  IC50: 0.125 ± 0.0088 µM
[6]; LVDr + M250V, read-out: ddGTP IC50, Average ± SD (Range)
  IC50: 0.154 ± 0.0514 µM
[7]
  IC50: 0.0876 µM
